From ChEMBL document CHEMBL3877286, “Green fluorescent protein chromophore derivatives as a new class of aldose reductase inhibitors” (Eur J Med Chem, 2017)

Key:
[1] = biological target: T1, Aldo-keto reductase family 1 member B1 (Homo sapiens, UniProt P15121); test: Inhibition of recombinant human ALR2 assessed as reduction in NADPH oxidation at 13 uM measured for 5 mins in presence of D,L-glyceraldehyde by spectrophotometric method relative to control
[2] = biological target: T1, Aldo-keto reductase family 1 member B1; test: Inhibition of recombinant human ALR2 assessed as reduction in NADPH oxidation measured for 5 mins in presence of D,L-glyceraldehyde by spectrophotometric method
[3] = biological target: T1, Aldo-keto reductase family 1 member B1; test: Potency index, ratio of sorbinil IC50 to compound IC50 for recombinant human ALR2

Row | Structure (SMILES) | inhibition [1] [%] | IC50 [2] [nM] | Ratio IC50 [3]
1 | CCOC(=O)CN1C(=O)/C(=C/c2ccc(Cl)cc2)N=C1C | 16 |  | 
2 | CC1=N/C(=C\c2ccc(O)cc2)C(=O)N1CCC(=O)O |  | 10700 | 
3 | CC1=N/C(=C\c2cccc(O)c2)C(=O)N1CC(=O)O |  | 3200 | 
4 | CCOC(=O)COc1ccc(/C=C2\N=C(C)N(CC(=O)OCC)C2=O)cc1 |  | 109000 | 
5 | CCOC(=O)CN1C(=O)/C(=C/c2ccccc2)N=C1C |  | 112000 | 
6 | CCOC(=O)CN1C(=O)/C(=C/c2ccc(O)cc2)N=C1C |  | 23000 | 

Next, values leading:

Row | inhibition [1] [%] | IC50 [2] [nM] | Ratio IC50 [3] | Structure (SMILES)
7 |  | 510 |  | COc1ccc(/C=C2\N=C(C)N(CC(=O)O)C2=O)cc1
8 |  | 100 |  | CC1=N/C(=C\c2ccc3ccccc3c2)C(=O)N1CC(=O)O
9 |  | 580 |  | CC1=N/C(=C\c2ccccc2)C(=O)N1CC(=O)O
10 |  | 310 |  | CC1=N/C(=C\c2ccc(OCC(=O)O)cc2)C(=O)N1CC(=O)O
11 |  | 360 | 6 | CC1=N/C(=C\c2ccc(O)cc2)C(=O)N1CC(=O)O
12 |  | 270 |  | CC1=N/C(=C\c2ccc(Cl)cc2)C(=O)N1CC(=O)O
13 |  | 540 |  | CC1=N/C(=C\c2cccc3ccccc23)C(=O)N1CC(=O)O
14 |  | 130 |  | CC1=N/C(=C\c2cc(C)c(O)c(C)c2)C(=O)N1CC(=O)O
15 |  | 650 |  | CC1=N/C(=C\c2ccc(F)cc2)C(=O)N1CC(=O)O
16 |  | 240 |  | CC1=N/C(=C\c2ccc(Br)cc2)C(=O)N1CC(=O)O
